Assay results from PubChem BioAssay (NCI).
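Following 48 hours of exposure in 96-well plates, responses at five concentrations were used to interpolate endpoints linearly. At the GI50, growth is halved. TGI: total growth inhibition.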

Columns and labels:
Assay in all cases: NCI anticancer screen, dose series, 48 h
786-0 renal = system: 786-0 renal
A498 renal = system: A498 renal
A549 NSCLC = system: A549 NSCLC
ACHN renal = system: ACHN renal
BT-549 breast = system: BT-549 breast
CAKI-1 renal = system: CAKI-1 renal
CCRF-CEM leukemia = system: CCRF-CEM leukemia
COLO 205 colon = system: COLO 205 colon
DU-145 prostate = system: DU-145 prostate
EKVX NSCLC = system: EKVX NSCLC
HCC-2998 colon = system: HCC-2998 colon
HCT-116 colon = system: HCT-116 colon
HCT-15 colon = system: HCT-15 colon
HL-60(TB) leukemia = system: HL-60(TB) leukemia
HOP-62 NSCLC = system: HOP-62 NSCLC
HOP-92 NSCLC = system: HOP-92 NSCLC
HS 578T breast = system: HS 578T breast
HT29 colon = system: HT29 colon
IGROV1 ovarian = system: IGROV1 ovarian
K-562 leukemia = system: K-562 leukemia
KM12 colon = system: KM12 colon
LOX IMVI melanoma = system: LOX IMVI melanoma
M14 melanoma = system: M14 melanoma
MALME-3M melanoma = system: MALME-3M melanoma
MCF7 breast = system: MCF7 breast
MDA-MB-231 breast = system: MDA-MB-231 breast
MDA-MB-435 = system: MDA-MB-435
MOLT-4 leukemia = system: MOLT-4 leukemia
NCI-H226 lung = system: NCI-H226 lung
NCI-H23 lung = system: NCI-H23 lung
NCI-H460 lung = system: NCI-H460 lung
NCI-H522 lung = system: NCI-H522 lung
NCI/ADR-RES ovarian = system: NCI/ADR-RES ovarian
OVCAR-3 ovarian = system: OVCAR-3 ovarian
OVCAR-4 ovarian = system: OVCAR-4 ovarian
OVCAR-5 ovarian = system: OVCAR-5 ovarian
OVCAR-8 ovarian = system: OVCAR-8 ovarian
PC-3 prostate = system: PC-3 prostate
RPMI-8226 leukemia = system: RPMI-8226 leukemia
RXF 393 renal = system: RXF 393 renal
SF-268 CNS = system: SF-268 CNS
SF-295 CNS = system: SF-295 CNS
SF-539 CNS = system: SF-539 CNS
SK-MEL-2 melanoma = system: SK-MEL-2 melanoma
SK-MEL-28 melanoma = system: SK-MEL-28 melanoma
SK-MEL-5 melanoma = system: SK-MEL-5 melanoma
SK-OV-3 ovarian = system: SK-OV-3 ovarian
SN12C renal = system: SN12C renal
SNB-19 CNS = system: SNB-19 CNS
SNB-75 CNS = system: SNB-75 CNS
SR leukemia = system: SR leukemia
SW-620 colon = system: SW-620 colon
T-47D breast = system: T-47D breast
TK-10 renal = system: TK-10 renal
U251 CNS = system: U251 CNS
UACC-257 melanoma = system: UACC-257 melanoma
UACC-62 melanoma = system: UACC-62 melanoma
UO-31 renal = system: UO-31 renal

In the case of `CCC(C(=O)[C@@H](C)[C@@H](O)[C@H](C)[C@@H]1O[C@@H]([C@@H](CC)C(=O)ONC(=O)c2ccccc2)CC[C@@H]1C)[C@H]1O[C@]2(C=CC(=O)[C@]3(CC[C@@](C)([C@H]4CC[C@](O)(CC)[C@H](C)O4)O3)O2)[C@H](C)C[C@@H]1C` (stereo partly specified), the GI50 (786-0 renal) is reported as 981 nM, the TGI (786-0 renal) is reported as 2260 nM and the GI50 (A498 renal) is reported as 85.1 nM. It also gave a TGI (A498 renal) of 731 nM, a GI50 (A549 NSCLC) of 168 nM and a TGI (A549 NSCLC) of 1630 nM. The GI50 (ACHN renal) was 641 nM, the TGI (ACHN renal) was 2030 nM and the GI50 (BT-549 breast) was 146 nM. For the same compound, the TGI (BT-549 breast) was 1970 nM, the GI50 (CAKI-1 renal) was 1010 nM and the TGI (CAKI-1 renal) was 2710 nM. For the same compound, the GI50 (CCRF-CEM leukemia) was 120 nM, the TGI (CCRF-CEM leukemia) was 1950 nM and the GI50 (COLO 205 colon) was 122 nM. The TGI (COLO 205 colon) was 1780 nM, the GI50 (DU-145 prostate) was 511 nM and the TGI (DU-145 prostate) was 1980 nM. It also gave a GI50 (EKVX NSCLC) of 548 nM, a TGI (EKVX NSCLC) of 2650 nM and a GI50 (HCC-2998 colon) of 658 nM. For the same compound, the TGI (HCC-2998 colon) was 4030 nM, the GI50 (HCT-116 colon) was 360 nM and the TGI (HCT-116 colon) was 1910 nM. It also gave a GI50 (HCT-15 colon) of 349 nM, a TGI (HCT-15 colon) of 1610 nM and a GI50 (HL-60(TB) leukemia) of 87.5 nM. It also gave a TGI (HL-60(TB) leukemia) of 442 nM, a GI50 (HOP-62 NSCLC) of 161 nM and a TGI (HOP-62 NSCLC) of 1950 nM. For the same compound, the GI50 (HOP-92 NSCLC) was 141 nM, the TGI (HOP-92 NSCLC) was 1870 nM and the GI50 (HS 578T breast) was 99.1 nM. For the same compound, the TGI (HS 578T breast) was 2580 nM, the GI50 (HT29 colon) was 387 nM and the TGI (HT29 colon) was 2100 nM. The GI50 (IGROV1 ovarian) was 198 nM, the TGI (IGROV1 ovarian) was 631 nM and the GI50 (K-562 leukemia) was 171 nM. For the same compound, the TGI (K-562 leukemia) was 1790 nM, the GI50 (KM12 colon) was 592 nM and the TGI (KM12 colon) was 2940 nM. For the same compound, the GI50 (LOX IMVI melanoma) was 316 nM, the TGI (LOX IMVI melanoma) was 1840 nM and the GI50 (M14 melanoma) was 1320 nM. For the same compound, the TGI (M14 melanoma) was 7500 nM, the GI50 (MALME-3M melanoma) was 168 nM and the TGI (MALME-3M melanoma) was 1060 nM. For the same compound, the GI50 (MCF7 breast) was 86.9 nM, the TGI (MCF7 breast) was 1620 nM and the GI50 (MDA-MB-231 breast) was 295 nM. For the same compound, the TGI (MDA-MB-231 breast) was 1630 nM, the GI50 (MDA-MB-435) was 1110 nM and the TGI (MDA-MB-435) was 2880 nM. For the same compound, the GI50 (MOLT-4 leukemia) was 729 nM, the TGI (MOLT-4 leukemia) was 3320 nM and the GI50 (NCI-H226 lung) was 749 nM. For the same compound, the TGI (NCI-H226 lung) was 3560 nM, the GI50 (NCI-H23 lung) was 175 nM and the TGI (NCI-H23 lung) was 2080 nM. It also gave a GI50 (NCI-H460 lung) of 331 nM, a TGI (NCI-H460 lung) of 2090 nM and a GI50 (NCI-H522 lung) of 54.7 nM. For the same compound, the TGI (NCI-H522 lung) was 1400 nM, the GI50 (NCI/ADR-RES ovarian) was 374 nM and the TGI (NCI/ADR-RES ovarian) was 2280 nM. For the same compound, the GI50 (OVCAR-3 ovarian) was 84.9 nM, the TGI (OVCAR-3 ovarian) was 1290 nM and the GI50 (OVCAR-4 ovarian) was 1070 nM. The TGI (OVCAR-4 ovarian) was greater than 40100 nM, the GI50 (OVCAR-5 ovarian) was 498 nM and the TGI (OVCAR-5 ovarian) was 2180 nM. For the same compound, the GI50 (OVCAR-8 ovarian) was 251 nM, the TGI (OVCAR-8 ovarian) was 2770 nM and the GI50 (PC-3 prostate) was 77.5 nM. For the same compound, the TGI (PC-3 prostate) was 1990 nM, the GI50 (RPMI-8226 leukemia) was 83.8 nM and the TGI (RPMI-8226 leukemia) was 2300 nM. It also gave a GI50 (RXF 393 renal) of 95.7 nM, a TGI (RXF 393 renal) of 1740 nM and a GI50 (SF-268 CNS) of 977 nM. The TGI (SF-268 CNS) was 3110 nM, the GI50 (SF-295 CNS) was 384 nM and the TGI (SF-295 CNS) was 2080 nM. The GI50 (SF-539 CNS) was 262 nM, the TGI (SF-539 CNS) was 1710 nM and the GI50 (SK-MEL-2 melanoma) was 1070 nM. It also gave a TGI (SK-MEL-2 melanoma) of 2910 nM, a GI50 (SK-MEL-28 melanoma) of 1600 nM and a TGI (SK-MEL-28 melanoma) of 8570 nM. For the same compound, the GI50 (SK-MEL-5 melanoma) was 105 nM, the TGI (SK-MEL-5 melanoma) was 361 nM and the GI50 (SK-OV-3 ovarian) was 2790 nM. It also gave a TGI (SK-OV-3 ovarian) of 10100 nM, a GI50 (SN12C renal) of 61.4 nM and a TGI (SN12C renal) of 1490 nM. The GI50 (SNB-19 CNS) was 588 nM, the TGI (SNB-19 CNS) was 3430 nM and the GI50 (SNB-75 CNS) was 238 nM. The TGI (SNB-75 CNS) was 2040 nM, the GI50 (SR leukemia) was 67.4 nM and the TGI (SR leukemia) was 617 nM. It also gave a GI50 (SW-620 colon) of 582 nM, a TGI (SW-620 colon) of 2710 nM and a GI50 (T-47D breast) of 46.3 nM. It also gave a TGI (T-47D breast) of 2980 nM, a GI50 (TK-10 renal) of 1100 nM and a TGI (TK-10 renal) of 2440 nM. It also gave a GI50 (U251 CNS) of 110 nM, a TGI (U251 CNS) of 1600 nM and a GI50 (UACC-257 melanoma) of 255 nM. For the same compound, the TGI (UACC-257 melanoma) was 5610 nM, the GI50 (UACC-62 melanoma) was 1250 nM and the TGI (UACC-62 melanoma) was 2930 nM. The GI50 (UO-31 renal) was 403 nM and the TGI (UO-31 renal) was 1790 nM.
